These are literature values, as cited in paper PMC12308805, “Ultrahigh-Throughput Virtual Screening Strategies against PPI Targets: A Case Study of STAT Inhibitors” (Journal of Chemical Information and Modeling, 2025).

Square brackets hold non-standard residues; d marks the D form. Peptide text beside a SMILES is read from it. * marks the point of attachment. Isobutyryl = CC(C)C(=O)*

The test system of this series is STAT3. Particulars: sheet 6QHD_actives_decoys, retrospective screening set for STAT3 SH2 domain (PDB 6QHD); decoys are presumed inactives, not tested; ref DUD-E; cited from earlier work.
Take `CCc1ccc2[nH]c(=O)c(CN(CCc3ccc(OC)c(OC)c3)Cc3nnnn3Cc3ccccc3)cc2c1` [Decoy770]: the Type result is reported as “Inactive (Decoy)”. As to `O=C(CCCCC(=O)Nc1ccc(S(=O)(=O)N2CCCCC2)cc1)Nc1ccc(S(=O)(=O)N2CCCCC2)cc1` [Decoy771], the Type entry was “Inactive (Decoy)”. Regarding `CC1=CC(=O)CC(C)(C)[C@H]1/C=C/[C@@H](C)O[C@@H]1O[C@H](CO)[C@@H](O)[C@H](O)[C@H]1O[C@@H]1OC[C@](O)(CO)[C@H]1O` [Decoy772], the Type result is listed as “Inactive (Decoy)”. Turning to `COc1c([C@@H]2OC[C@@H](OC(C)=O)[C@@H](OC(C)=O)[C@H]2OC(C)=O)c(O)cc2oc(-c3ccc(O[C@H]4O[C@@H](CO)[C@@H](O)[C@@H](O)[C@H]4O)cc3)cc(=O)c12` [Decoy773], the Type entry is on record as “Inactive (Decoy)”. For the compound `COc1c([C@@H]2OC[C@H](OC(C)=O)[C@@H](OC(C)=O)[C@H]2OC(C)=O)c(O)cc2oc(-c3ccc(O[C@H]4O[C@@H](CO)[C@@H](O)[C@@H](O)[C@H]4O)cc3)cc(=O)c12` [Decoy774], the Type result was “Inactive (Decoy)”.

`CC[C@H]1OC(=O)[C@@H](C)[C@@H](O[C@@H]2C[C@@](C)(OC)[C@H](O)[C@H](C)O2)[C@@H](C)[C@@H](O[C@H]2O[C@@H](C)C[C@@H](N(C)C)[C@H]2O)[C@](C)(OC)C[C@@H](C)C(=O)[C@@H](C)[C@@H](O)[C@]1(C)O` [Decoy775]: the Type entry is on record as “Inactive (Decoy)”. Consider `COc1ccc2cc([C@H](c3nnnn3C(C)(C)C)N(CCc3ccc(OC)c(OC)c3)Cc3ccccc3)c(=O)[nH]c2c1` [Decoy776], for which the Type entry is reported as “Inactive (Decoy)”.

Consider `Cc1cc(NC(=O)CSc2nncn2C)ccc1-c1ccc(NC(=O)CSc2nncn2C)cc1C` [Decoy777], for which the Type entry is listed as “Inactive (Decoy)”.

Consider `CCOc1ccc(-n2c(SCC(=O)N/N=C/c3ccc(OC)c(OC)c3OC)nnc2-c2ccccc2)cc1` [Decoy778], for which the Type result was “Inactive (Decoy)”.

Regarding `C[C@@]1(c2cc3ccccc3o2)NC(=O)N(CC(=O)Nc2cccc(S(=O)(=O)N3CCCC3)c2)C1=O` [Decoy779], the Type result was “Inactive (Decoy)”. Consider `C/C(=C(/CCO)SS/C(CCO)=C(\C)N(C=O)Cc1cnc(C)nc1N)N(C=O)Cc1cnc(C)nc1N` [Decoy780], for which the Type entry is “Inactive (Decoy)”. As for `C/C(=C(\CCO)SS/C(CCO)=C(\C)N(C=O)Cc1cnc(C)nc1N)N(C=O)Cc1cnc(C)nc1N` [Decoy781], the Type result was “Inactive (Decoy)”. For `C[C@H](O)C[C@H](O)[C@@H](SC[C@@H](O)C(=O)O)[C@@H](O)/C=C/Cc1cc2c(Cl)c(O)cc(O)c2c(=O)o1` [Decoy782], the Type entry is recorded as “Inactive (Decoy)”. For the compound `CC(=O)c1cccc(S(=O)(=O)NCCC(=O)Nc2ccc(S(=O)(=O)/N=C3\CCCCCN3)cc2)c1` [Decoy783], the Type result is “Inactive (Decoy)”.

As for `Cc1ccc(OCC(=O)NNC(=O)CCCCC(=O)NNC(=O)COc2ccc(C)cc2Br)c(Br)c1` [Decoy784], the Type result is given as “Inactive (Decoy)”. As for `CC(/C=C/C=C(\C)C(=O)O)=C\C=C\C=C(C)\C=C\C=C(/C)C(=O)O[C@@H]1O[C@H](CO[C@@H]2O[C@H](CO)[C@@H](O)[C@H](O)[C@H]2O)[C@@H](O)[C@H](O)[C@H]1O` [Decoy785], the Type result is reported as “Inactive (Decoy)”.

As to `COc1cc(/C=N/N=C2\NC(=O)[C@H](CC(=O)O)S2)cc(Br)c1OS(=O)(=O)c1ccc(NC(C)=O)cc1` [Decoy786], the Type result is given as “Inactive (Decoy)”.

`COc1cc(/C=N/NC(=O)CSc2nnc(-c3cccc([N+](=O)[O-])c3)n2N)c([N+](=O)[O-])cc1O` [Decoy787]: the Type entry is recorded as “Inactive (Decoy)”. In the case of `Cc1nn(C)cc1CN1CCN(C(=S)Nc2ccc(S(=O)(=O)Nc3ncccn3)cc2)CC1` [Decoy788], the Type entry is “Inactive (Decoy)”.

For the compound `CCOC(=O)c1ccc(NC(=O)CSc2nnc(CNC(=O)c3ccco3)n2-c2ccc(OCC)cc2)cc1` [Decoy789], the Type result was “Inactive (Decoy)”. With `C=CCOc1ccc([C@H]2C(C(=O)c3ccc(S(=O)(=O)N(C)C)cc3)=C(O)C(=O)N2CCCN(C)C)cc1OC` [Decoy790], the Type entry was “Inactive (Decoy)”. In the case of `OC[C@@H](O)[C@H](O[C@@H]1O[C@H](CO)[C@@H](O)[C@H](O)[C@H]1O)[C@@H](O)C(/C=N/Nc1ccccc1)=N/Nc1ccccc1` [Decoy791], the Type result is recorded as “Inactive (Decoy)”. `CCOC(=O)N[C@@](Nc1ccc(S(=O)(=O)Nc2ncccn2)cc1)(C(=O)OCC)C(F)(F)F` [Decoy792]: the Type entry is on record as “Inactive (Decoy)”. As for `Nc1nnc(S(=O)(=O)N[C@]2(C(F)(F)F)C(=O)N=C3C2=C(O)NC(=O)N3Cc2cccnc2)s1` [Decoy794], the Type entry is given as “Inactive (Decoy)”. `O=c1cc(-c2ccc(O)c(O)c2)oc2cc(O[C@@H]3O[C@H](CO[C@@H]4OC[C@@H](O)[C@@H](O)[C@H]4O)[C@@H](O)[C@H](O)[C@H]3O)cc(O)c12` [Decoy795]: the Type result is “Inactive (Decoy)”.

For `CCOc1ccc(-n2c(Cc3cc(=O)[nH]c(=O)[nH]3)nnc2SCC(=O)Nc2ccc(F)cc2)cc1` [Decoy796], the Type result is recorded as “Inactive (Decoy)”.

As for `CCCCSc1nnc(/N=C(\O)CSc2n[nH]c(N/N=C/c3c(C)nn(C(C)C)c3C)n2)s1` [Decoy797], the Type result is reported as “Inactive (Decoy)”. With `CCOc1cccc(/C=N/NC(=O)CSc2nnc(-c3cc(OC)c(OC)c(OC)c3)n2-c2ccccc2)c1O` [Decoy798], the Type result was “Inactive (Decoy)”. Consider `CCOc1ccc2[nH]c(=O)c(CN(CCc3ccc(OC)c(OC)c3)Cc3nnnn3C3CCCC3)cc2c1` [Decoy799], for which the Type result is “Inactive (Decoy)”. Turning to `COc1cc(C(=O)OC[C@]2(O)CO[C@H](OC[C@@H]3O[C@@H](Oc4c(OC)cc(CO)cc4OC)[C@H](O)[C@H](O)[C@@H]3O)[C@@H]2O)cc(OC)c1O` [Decoy800], the Type result is listed as “Inactive (Decoy)”.

For the compound `Cc1nnc(CSc2nnc(NC(=O)CSc3n[nH]c(N/N=C/c4ccncc4)n3)s2)o1` [Decoy801], the Type result is on record as “Inactive (Decoy)”. For the compound `CCN1C[C@]2(COC)[C@H](O)C[C@H](OC)[C@@]34[C@@H]2[C@@H](OC)[C@@H]([C@@H]13)[C@]1(OC(C)=O)[C@H]2[C@@H](OC(=O)c3ccccc3)[C@](O)(C[C@]24O)[C@@H](OC)[C@@H]1O` [Decoy802], the Type result was “Inactive (Decoy)”. With `CCSc1nnc(NC(=O)CSc2n[nH]c(N/N=C/c3ccc(F)cc3)n2)s1` [Decoy803], the Type entry is “Inactive (Decoy)”.

Turning to `CNC(=O)[C@H](CC(C)C)NC(=O)[C@H](Cc1c[nH]cn1)NC(=O)[C@@H](C)NC(=O)[C@@H](NC(=O)[C@H](C)NC(=O)[C@H](Cc1c[nH]c2ccccc12)NC(=O)[C@H](Cc1c[nH]cn1)NC(=O)C(C)C)C(C)C` [Decoy804] (Isobutyryl-HWAV[dA]HL-NHMe), the Type result is on record as “Inactive (Decoy)”.

For `CNC(=O)[C@H](CC(C)C)NC(=O)[C@H](Cc1c[nH]cn1)NC(=O)[C@@H](C)NC(=O)[C@@H](NC(=O)[C@H](C)NC(=O)[C@H](Cc1c[nH]c2ccccc12)NC(=O)[C@H](Cc1cnc[nH]1)NC(=O)C(C)C)C(C)C` [Decoy805] (Isobutyryl-HWAV[dA]HL-NHMe), the Type result is reported as “Inactive (Decoy)”.

For `CNC(=O)[C@H](CC(C)C)NC(=O)[C@H](Cc1cnc[nH]1)NC(=O)[C@@H](C)NC(=O)[C@@H](NC(=O)[C@H](C)NC(=O)[C@H](Cc1c[nH]c2ccccc12)NC(=O)[C@H](Cc1cnc[nH]1)NC(=O)C(C)C)C(C)C` [Decoy806] (Isobutyryl-HWAV[dA]HL-NHMe), the Type entry was “Inactive (Decoy)”.
